Reference: ChEMBL document CHEMBL1140218, “Novel bis- and tris-1,2,4-trioxanes: synthesis and antimalarial activity against multidrug-resistant Plasmodium yoelii in Swiss mice” (J Med Chem, 2008)
Active and inactive are the calls of the source. The rule behind the calls is not given here.

Legend:
[1] = system: Plasmodium yoelii nigeriensis; assay: Antimalarial activity as survival time against multidrug-resistant Plasmodium yoelii nigeriensis in Swiss mice (Mus musculus) at 96 mg/kg peroral dose for 4 days; assay type: functional; conditions: route oral
[2] = system: Plasmodium yoelii nigeriensis; assay: Antimalarial activity as cures against multidrug-resistant Plasmodium yoelii nigeriensis in Swiss mice (Mus musculus) at 96 mg/kg peroral dose for 4 days; assay type: functional, organism-based; parameters: dose 96 mg/kg
[3] = system: Plasmodium yoelii nigeriensis; assay: Antimalarial activity as reduced parasitaemia against multidrug-resistant Plasmodium yoelii nigeriensis in Swiss mice (Mus musculus) at 96 mg/kg peroral dose for 4 days; assay type: functional; parameters: scale not given: the % may be the effect or the level left; conditions: route oral
[4] = system: Plasmodium yoelii nigeriensis; assay: Antimalarial activity as survival time against multidrug-resistant Plasmodium yoelii nigeriensis in Swiss mice (Mus musculus) at 24 mg/kg peroral dose for 4 days; assay type: functional; conditions: route oral
[5] = system: Plasmodium yoelii nigeriensis; assay: Antimalarial activity as reduced parasitaemia against multidrug-resistant Plasmodium yoelii nigeriensis in Swiss mice (Mus musculus) at 48 mg/kg peroral dose for 4 days; assay type: functional; parameters: scale not given: the % may be the effect or the level left; conditions: route oral
[6] = system: Plasmodium yoelii nigeriensis; assay: Antimalarial activity as cures against multidrug-resistant Plasmodium yoelii nigeriensis infected Swiss mice (Mus musculus) at 48 mg/kg peroral dose over 4 days; assay type: functional, organism-based; parameters: dose 48 mg/kg
[7] = system: Plasmodium yoelii nigeriensis; assay: Antimalarial activity as survival time against multidrug-resistant Plasmodium yoelii nigeriensis in Swiss mice (Mus musculus) at 48 mg/kg peroral dose for 4 days; assay type: functional; conditions: route oral
[8] = system: Plasmodium yoelii nigeriensis; assay: Antimalarial activity as reduced parasitaemia against multidrug-resistant Plasmodium yoelii nigeriensis in Swiss mice (Mus musculus) at 24 mg/kg peroral dose for 4 days; assay type: functional; parameters: scale not given: the % may be the effect or the level left; conditions: route oral
[9] = Solubility in groundnut oil; assay type: physicochemical

Row | SMILES | Survival [1] [days] | Activity [2] | Activity [3] [%] | Survival [4] [days] | Activity [5] [%] | Activity [6] | Survival [7] [days] | Activity [8] [%] | solubility [9]
1 | C=C(c1ccc(Oc2cccc3c(Oc4ccc(C(=C)C5COC6(CCCCC6)OO5)cc4)cccc23)cc1)C1COC2(CCCCC2)OO1 (centres undefined) | 8.2 | inactive | 16.36 | – | – | – | – | – | –
2 | C=C(c1ccc(Oc2cccc3c(Oc4ccc(C(=C)C5COC6(OO5)C5CC7CC(C5)CC6C7)cc4)cccc23)cc1)C1COC2(OO1)C1CC3CC(C1)CC2C3 (centres undefined) | 7.4 | inactive | 12.27 | – | – | – | – | – | –
3 | C=C(c1ccc(Oc2ccc(C(=C)C3COC4(CCCC4)OO3)cc2)cc1)C1COC2(CCCC2)OO1 (centres undefined) | >28 | Active | 100 | >21.2 | 100 | Active | >28 | 100 | –
4 | C=C(c1ccc(OCC(O)COc2ccc(C(=C)C3COC4(CCCCC4)OO3)cc2)cc1)C1COC2(CCCCC2)OO1 (centres undefined) | >28 | Active | 100 | – | 75.86 | inactive | 8 | – | –
5 | C=C(c1ccc(Oc2ccc3ccc(Oc4ccc(C(=C)C5COC6(CCCC6)OO5)cc4)cc3c2)cc1)C1COC2(CCCC2)OO1 (centres undefined) | 7.8 | inactive | 42.29 | – | – | – | – | – | –
6 | C=C(c1ccc(OCC(O)COc2ccc(C(=C)C3COC4(OO3)C3CC5CC(C3)CC4C5)cc2)cc1)C1COC2(OO1)C1CC3CC(C1)CC2C3 (centres undefined) | 8.6 | inactive | 26.76 | – | – | – | – | – | –
7 | C=C(c1ccc(Oc2cc(Oc3ccc(C(=C)C4COC5(OO4)C4CC6CC(C4)CC5C6)cc3)cc(Oc3ccc(C(=C)C4COC5(OO4)C4CC6CC(C4)CC5C6)cc3)c2)cc1)C1COC2(OO1)C1CC3CC(C1)CC2C3 (centres undefined) | 7.4 | inactive | 5.47 | – | – | – | – | – | –
8 | C=C(c1ccc(Oc2ccc3ccc(Oc4ccc(C(=C)C5COC6(OO5)C5CC7CC(C5)CC6C7)cc4)cc3c2)cc1)C1COC2(OO1)C1CC3CC(C1)CC2C3 (centres undefined) | 7.4 | inactive | 36.07 | – | – | – | – | – | –
9 | C=C(c1ccc(OCCOc2ccc(C(=C)C3COC4(CCCCC4)OO3)cc2)cc1)C1COC2(CCCCC2)OO1 (centres undefined) | 10.6 | inactive | 86.29 | – | – | – | – | – | –
10 | C=C(c1ccc(OCCOc2ccc(C(=C)C3COC4(OO3)C3CC5CC(C3)CC4C5)cc2)cc1)C1COC2(OO1)C1CC3CC(C1)CC2C3 (centres undefined) | 7.6 | inactive | 66.39 | – | – | – | – | – | –
11 | C=C(c1ccc(OCCCOc2ccc(C(=C)C3COC4(OO3)C3CC5CC(C3)CC4C5)cc2)cc1)C1COC2(OO1)C1CC3CC(C1)CC2C3 (centres undefined) | 7.4 | inactive | 32.54 | – | – | – | – | – | –
12 | C=C(c1ccc(Oc2ccc3ccc(Oc4ccc(C(=C)C5COC6(CCCCC6)OO5)cc4)cc3c2)cc1)C1COC2(CCCCC2)OO1 (centres undefined) | – | – | – | – | – | – | – | – | Insoluble
13 | C=C(c1ccc(Oc2cccc(C(=C)C3COC4(CCCC4)OO3)c2)cc1)C1COC2(CCCC2)OO1 (centres undefined) | >28 | Active | 100 | – | 100 | inactive | 12.2 | – | –
14 | C=C(c1ccc(OCCCOc2ccc(C(=C)C3COC4(CCCC4)OO3)cc2)cc1)C1COC2(CCCC2)OO1 (centres undefined) | >28 | Active | 100 | – | 100 | inactive | 12.8 | – | –
15 | C=C(c1ccc(Oc2cccc(C(=C)C3COC4(CCCCC4)OO3)c2)cc1)C1COC2(CCCCC2)OO1 (centres undefined) | 10 | inactive | 76.79 | – | – | – | – | – | –
16 | C=C(c1ccc(Oc2ccc(C(=C)C3COC4(OO3)C3CC5CC(C3)CC4C5)cc2)cc1)C1COC2(OO1)C1CC3CC(C1)CC2C3 (centres undefined) | 7.2 | inactive | 36.74 | – | – | – | – | – | –
17 | C=C(c1ccc(Oc2cc(Oc3ccc(C(=C)C4COC5(CCCCC5)OO4)cc3)cc(Oc3ccc(C(=C)C4COC5(CCCCC5)OO4)cc3)c2)cc1)C1COC2(CCCCC2)OO1 (centres undefined) | 8.4 | inactive | 26.37 | – | – | – | – | – | –
18 | C=C(c1ccc(Oc2ccc(Oc3ccc(C(=C)C4COC5(CCCCC5)OO4)cc3)cc2)cc1)C1COC2(CCCCC2)OO1 (centres undefined) | 8.6 | inactive | 47.33 | – | – | – | – | – | –
19 | C=C(c1ccc(Oc2ccc(Oc3ccc(C(=C)C4COC5(CCCC5)OO4)cc3)cc2)cc1)C1COC2(CCCC2)OO1 (centres undefined) | 7.6 | inactive | 50.83 | – | – | – | – | – | –
20 | C=C(c1ccc(Oc2cc(Oc3ccc(C(=C)C4COC5(CCCC5)OO4)cc3)cc(Oc3ccc(C(=C)C4COC5(CCCC5)OO4)cc3)c2)cc1)C1COC2(CCCC2)OO1 (centres undefined) | 7.2 | inactive | 3.22 | – | – | – | – | – | –
21 | C=C(c1ccc(Oc2ccc(Oc3ccc(C(=C)C4COC5(OO4)C4CC6CC(C4)CC5C6)cc3)cc2)cc1)C1COC2(OO1)C1CC3CC(C1)CC2C3 (centres undefined) | 9 | inactive | 38.46 | – | – | – | – | – | –
22 | C=C(c1ccc(OCCOc2ccc(C(=C)C3COC4(CCCC4)OO3)cc2)cc1)C1COC2(CCCC2)OO1 (centres undefined) | >28 | Active | 100 | – | 87.76 | inactive | 12.2 | – | –
23 | C=C(c1ccc(Oc2ccc(C(=C)C3COC4(CCCCC4)OO3)cc2)cc1)C1COC2(CCCCC2)OO1 (centres undefined) | >28 | Active | 100 | – | 100 | inactive | 11.8 | – | –
24 | C=C(c1ccc(OCC(O)COc2ccc(C(=C)C3COC4(CCCC4)OO3)cc2)cc1)C1COC2(CCCC2)OO1 (centres undefined) | >28 | Active | 100 | – | 74.32 | inactive | 9.6 | – | –
25 | CCO[C@@H]1C[C@@H]2CC[C@@H](C)[C@@H]3CC[C@]4(C)OO[C@@]23[C@H](O1)O4 | >28 | – | – | – | 100 | Active | – | 100 | –
26 | C=C(c1ccc(Oc2cccc(C(=C)C3COC4(OO3)C3CC5CC(C3)CC4C5)c2)cc1)C1COC2(OO1)C1CC3CC(C1)CC2C3 (centres undefined) | 7.6 | inactive | 7.16 | – | – | – | – | – | –
27 | C=C(c1ccc(OCCCOc2ccc(C(=C)C3COC4(CCCCC4)OO3)cc2)cc1)C1COC2(CCCCC2)OO1 (centres undefined) | >28 | Active | 100 | – | 87.47 | inactive | 10.8 | – | –
28 | C=C(c1ccc(Oc2cccc3c(Oc4ccc(C(=C)C5COC6(CCCC6)OO5)cc4)cccc23)cc1)C1COC2(CCCC2)OO1 (centres undefined) | 8.4 | inactive | 40.05 | – | – | – | – | – | –
